Holding throughout (format): in vivo
Test [1] has as its system Adoxophyes reticulana eggs. Briefly: Activity against Adoxophyes reticulana (ovicidal), egg immersion test. Conditions: 144 h; 400 ppm of active ingredient in acetone/water; eggs on filter paper immersed; after 6 days; vs untreated control; isomer ratios A, B and C used; read-out: activity (% reduction in hatching rate). The text has this: (§1) The active ingredient is used, in each case, in three different isomer ratios A, B and C: A = 37.8 % of 2R,4S-isomer IIIa, 37.8% of 2S,4R-isomer IIIb, 12.2% of 2R,4R-isomer IIIc and 12.2% of 2S,4S-isomer IIId; B = 40.2% of 2R,4S-isomer IIIa, 40.2% of 2S,4R-isomer IIIb, 9.8% of 2R,4R-isomer IIIc and 9.8% of 2S,4S-isomer IIId; and C = 36.7% of 2R,4S-isomer IIIa, 36.7% of 2S,4R-isomer IIIb, 13.3% of 2R,4R-isomer IIIc and 13.3% of 2S,4S-isomer IIId. Example B1: Activity against Adoxophyes reticulana (ovicidal) Adoxophyes reticulana eggs which have been deposited on filter paper are briefly immersed into a test solution of 400 ppm of active ingredient in acetone/water. After the test solution has dried on, the eggs are incubated in Petri dishes. After 6 days, the percentage hatching rate of the eggs is evaluated by comparison with untreated control batches (% reduction in hatching rate). In this test, the compound of the formula III has an activity of over 80%.

The test system of test [2] is Aonidiella aurantii crawlers. Briefly: Activity against Aonidiella aurantii on potato tubers (immersion). Conditions: 400 ppm of active ingredient; potato tubers immersed in aqueous emulsion or suspension spray mixture; after 10 to 12 weeks; isomer ratios A, B and C used. The text has this:
(§2) The active ingredient is used, in each case, in three different isomer ratios A, B and C: A = 37.8 % of 2R,4S-isomer IIIa, 37.8% of 2S,4R-isomer IIIb, 12.2% of 2R,4R-isomer IIIc and 12.2% of 2S,4S-isomer IIId; B = 40.2% of 2R,4S-isomer IIIa, 40.2% of 2S,4R-isomer IIIb, 9.8% of 2R,4R-isomer IIIc and 9.8% of 2S,4S-isomer IIId; and C = 36.7% of 2R,4S-isomer IIIa, 36.7% of 2S,4R-isomer IIIb, 13.3% of 2R,4R-isomer IIIc and 13.3% of 2S,4S-isomer IIId. Example B2: Activity against Aonidiella aurantii Potato tubers are populated with Aonidiella aurantii crawlers. After about 2 weeks, the potatoes are immersed into an aqueous emulsion spray mixture or suspension spray mixture which comprises 400 ppm of active ingredient. After the tubers have dried, they are incubated in a plastic container. To evaluate the experiment after 10 to 12 weeks, the survival rate of the crawlers of the first subsequent generation of the treated population is compared with that of untreated control batches. In this test, the compound of the formula III has an activity of over 80%.

The subject of test [3] is Aonidiella aurantii crawlers. Briefly: Activity against Aonidiella aurantii on Citrus trifoliata cuttings (spray). The settings on record: 50 ppm of active ingredient; Citrus trifoliata cuttings sprayed to drip point; after 10 to 12 weeks; isomer ratios A, B and C used.
From the text: as §2, with “B3:” for “B2:”, “Citrus trifoliata cuttings” for “Potato tubers”, “cuttings” for “potatoes”, “sprayed to drip point with” for “immersed into”, “comprising 50” for “or suspension spray mixture which comprises 400”, “ingredient.” for “ingredient. After the tubers have dried, they are incubated in a plastic container.”

In test [4] the test system is Cydia pomonella eggs. Briefly: Activity against Cydia pomonella (ovicidal), egg immersion test. The settings on record: 144 h, 400 ppm of active ingredient in acetone/water, eggs on filter paper immersed, after 6 days, vs untreated control, isomer ratios A, B and C used, read-out: activity (% reduction in hatching rate).
From the text: as §1, with “B4:” for “B1:”, “Cydia pomonella” for “Adoxophyes reticulana”

Test [5] deals with Nilaparvata lugens. Briefly: Activity against Nilaparvata lugens on sprayed rice plants. Conditions: 504 h, 400 ppm of active ingredient, larvae in the 2nd and 3rd stages, after 21 days, isomer ratios A, B and C used, read-out: percentage reduction in population (% activity). The text has this:
The active ingredient is used, in each case, in three different isomer ratios A, B and C: A = 37.8 % of 2R,4S-isomer IIIa, 37.8% of 2S,4R-isomer IIIb, 12.2% of 2R,4R-isomer IIIc and 12.2% of 2S,4S-isomer IIId; B = 40.2% of 2R,4S-isomer IIIa, 40.2% of 2S,4R-isomer IIIb, 9.8% of 2R,4R-isomer IIIc and 9.8% of 2S,4S-isomer IIId; and C = 36.7% of 2R,4S-isomer IIIa, 36.7% of 2S,4R-isomer IIIb, 13.3% of 2R,4R-isomer IIIc and 13.3% of 2S,4S-isomer IIId. Example B5: Activity against Nilaparvata lugens Rice plants are sprayed with an aqueous emulsion spray mixture comprising 400 ppm of active ingredient. After the spray coating has dried on, the plants are populated with plant hopper larvae in the 2nd and 3rd stages. The test is evaluated after 21 days. The percentage reduction in population (% activity) is determined by comparing the number of surviving plant hoppers on the treated and untreated plants. In this test, the compound of the formula III has an activity of over 80%.

The test system of test [6] is Nilaparvata lugens. Description: Activity against Nilaparvata lugens (systemic), rice plants in pots. Conditions: 144 h, 10 ppm of active ingredient in aqueous emulsion solution, larvae in the 2nd and 3rd stages, after 6 days, isomer ratios A, B and C used, read-out: percentage reduction in population (% activity). An excerpt: The active ingredient is used, in each case, in three different isomer ratios A, B and C: A = 37.8 % of 2R,4S-isomer IIIa, 37.8% of 2S,4R-isomer IIIb, 12.2% of 2R,4R-isomer IIIc and 12.2% of 2S,4S-isomer IIId; B = 40.2% of 2R,4S-isomer IIIa, 40.2% of 2S,4R-isomer IIIb, 9.8% of 2R,4R-isomer IIIc and 9.8% of 2S,4S-isomer IIId; and C = 36.7% of 2R,4S-isomer IIIa, 36.7% of 2S,4R-isomer IIIb, 13.3% of 2R,4R-isomer IIIc and 13.3% of 2S,4S-isomer IIId. Example B6: Activity against Nilaparvata lugens (systemic) Pots containing rice plants are placed into an aqueous emulsion solution comprising 10 ppm of active ingredient. The plants are subsequently populated with larvae in the 2nd and 3rd stages. The test is evaluated after 6 days. The percentage reduction in population (% activity) is determined by comparing the number of plant hoppers on the treated and untreated plants. In this test, the compound of the formula III has an activity of over 80%.

For `CCC1OCC(COc2ccc(Oc3ccccc3)cc2)O1` (racemic) [compound of the formula III, 2-ethyl-4-(4-phenoxyphenoxymethyl)-1,3-dioxolane], the activity at 400 ppm in test [1], in test [4] and in test [5] was > 80% in each case. For the same molecule, the “activity (survival rate of the crawlers of the first subsequent generation compared with untreated control)” value in test [2] and in test [3] was “over 80%” each time. Besides, the activity at 10 ppm in test [6] is > 80%.

The record behind these values is EP0643053A1, “Process for the manufacture of phenoxyphenoxyalkyl derivatives” (CIBA-GEIGY AG, priority 1993, dated 1995).
